Key:
influenza strain G70C = format: cell-based
[1] = system: NWS/G70C influenza A virus

| Substance | Lowest Concentration (μM of GG167 units) that Inhibited Agglutination, G70C (influenza strain G70C) | amount of virus clearly detected [1] | compound concentration giving the best result [1] | detection signal at higher concentrations of compound [1] | detection signal at lower concentrations [1] |
| --- | --- | --- | --- | --- | --- |
| Fetuin | 0.73 µM | – | – | – | – |
| GG167-Bovine Serum Albumin-Biotin conjugate [Compound 3a] | – | 10^6 pfu | 0.1 µM | the signal was weaker | the detection signal was also weaker |

Reference: US6680054B1 (priority 1996, dated 2004)
